Assay results as given in article PMC4847728 (ACS chemical biology, 2015).
Converted amounts (≈) assume the structure as drawn.

Assays:
[1] = system: Staphylococcus aureus ATCC 10537 (MRSA); assay: MIC, liquid microdilution, MRSA; format: cell-based; conditions: 18 h, 37 °C
[2] = system: Enterococcus faecium ATCC 12952 (VRE); assay: MIC, liquid microdilution, VRE; format: cell-based; conditions: 18 h, 37 °C
[3] = system: Bacillus sp. ATCC 27859; assay: MIC, liquid microdilution, Bacillus; format: cell-based; conditions: 18 h, 37 °C
[4] = system: in vitro protein synthesis (E. coli S30 Extract System); assay: In vitro transcription-translation coupled assay; format: biochemical; conditions: read-out: IC50, in vitro translation inhibition, pBESTLuc template, 37 °C, 1 h, triplicate

C=C(NC(=O)C(=C)NC(=O)c1csc(C2=N[C@@H]3c4csc(n4)[C@H]4NC(=O)c5csc(n5)[C@H]([C@](C)(O)[C@@H](C)O)NC(=O)[C@H]5CSC(=N5)/C(=C/C)NC(=O)[C@H]([C@@H](C)O)NC(=O)c5csc(n5)[C@]3(CC2)NC(=O)[C@H](C)NC(=O)C(=C)NC(=O)[C@H](C)NC(=O)[C@H]([C@@H](C)CC)N[C@@H]2C=Cc3c([C@H](C)O)cc(nc3[C@H]2O)C(=O)O[C@@H]4C)n1)C(N)=O [Thiostrepton A, thiostrepton A]
MIC MRSA [1]: 0.012 µg/mL (≈ 7.21 nM) | MIC VRE [2]: 0.012 µg/mL (≈ 7.21 nM) | MIC Bacillus [3]: 0.025 µg/mL (≈ 15 nM) | IC50 [4]: 630 ± 10 nM
